Test results published in ChEMBL document CHEMBL5724558, “Image-based profiling of drug vulnerabilities in CRC organoids” (2024).
Where “and” joins values, the source holds several entries; their conditions need not be identical. Identical values can stand only once.

Key:
Assay type in all cases: functional, Homo sapiens
Parameters in all cases: dose or concentration left out as unconfirmed
Colon cancer organoid [1] = assay: (§1) Image-based profiling of donated chemical probes and chemogenomic kinase set in O21 CRC organoid. Image analysis is performed on the sum area metric, and the data were normalized to the DMSO control. After imaging the organoid viability is measured using the OneGloEX Luciferase Assay System. The normalized viability data and sum area are reported.
Colon cancer organoid [2] = assay: as §1, with “O09” for “O21”
Colon cancer organoid [3] = assay: as §1, with “O06” for “O21”

O=C(O)c1ccc2c(c1)nc(Nc1cccc(Cl)c1)c1ccncc12 [SILMITASERTIB]
Cell Viability (Colon cancer organoid [1]; Replication number 1): 103.567% and 112.056%
Cell Viability (Colon cancer organoid [1]; Replication number 2): 102.008% and 128.967%
Cell Viability (Colon cancer organoid [2]; Replication number 1): 75.9271% and 48.6208%
Cell Viability (Colon cancer organoid [2]; Replication number 2): 96.2856% and 65.3282%
Cell Viability (Colon cancer organoid [3]; Replication number 1): 95.4776% and 72.7779%
Cell Viability (Colon cancer organoid [3]; Replication number 2): 97.8% and 96.4524%

N#Cc1cnc(Nc2cc(NC[C@H]3CNCCO3)c(C(F)(F)F)cn2)cn1 [SRA-737]
Cell Viability (Colon cancer organoid [1]; Replication number 1): 21.4207% and 61.8815%
Cell Viability (Colon cancer organoid [1]; Replication number 2): 26.4159% and 74.8471%
Cell Viability (Colon cancer organoid [2]; Replication number 1): 93.3475% and 86.0215%
Cell Viability (Colon cancer organoid [2]; Replication number 2): 90.1274% and 73.6966%
Cell Viability (Colon cancer organoid [3]; Replication number 1): 47.9437% and 94.589%
Cell Viability (Colon cancer organoid [3]; Replication number 2): 63.1754% and 83.4961%

O=C1c2ccc(Nc3ccc(F)cc3F)cc2CCc2ccc(OC[C@H](O)CO)cc21 [Skepinone-L]
Cell Viability (Colon cancer organoid [1]; Replication number 1): 124.274% and 139.142%
Cell Viability (Colon cancer organoid [1]; Replication number 2): 112.785% and 100.442%
Cell Viability (Colon cancer organoid [2]; Replication number 1): 97.726% and 98.0993%
Cell Viability (Colon cancer organoid [2]; Replication number 2): 77.28% and 97.9381%
Cell Viability (Colon cancer organoid [3]; Replication number 1): 90.1352% and 107.854%
Cell Viability (Colon cancer organoid [3]; Replication number 2): 111.788% and 116.531%

CN1CCN(C(=O)C(C)(C)c2ccc(C(=O)Nc3cn4cc(-c5cc(C(C)(C)C)cc(C(C)(C)C)c5)ccc4n3)cc2)CC1 [T3-CLK-N]
Cell Viability (Colon cancer organoid [1]; Replication number 1): 88.9475% and 97.2186%
Cell Viability (Colon cancer organoid [1]; Replication number 2): 93.8303% and 107.653%
Cell Viability (Colon cancer organoid [2]; Replication number 1): 89.0201% and 93.1776%
Cell Viability (Colon cancer organoid [2]; Replication number 2): 119.23% and 117.123%
Cell Viability (Colon cancer organoid [3]; Replication number 1): 75.6351% and 77.2834%
Cell Viability (Colon cancer organoid [3]; Replication number 2): 96.9336% and 98.0752%

CN1CCN(C(=O)C(C)(C)c2ccc(C(=O)Nc3cn4cc(-c5ccncc5)ccc4n3)cc2)CC1 [T3-CLK]
Cell Viability (Colon cancer organoid [1]; Replication number 1): 57.8975% and 103.622%
Cell Viability (Colon cancer organoid [1]; Replication number 2): 54.6627% and 104.082%
Cell Viability (Colon cancer organoid [2]; Replication number 1): 41.227% and 51.6061%
Cell Viability (Colon cancer organoid [2]; Replication number 2): 31.6537% and 31.5444%
Cell Viability (Colon cancer organoid [3]; Replication number 1): 42.3595% and 97.4239%
Cell Viability (Colon cancer organoid [3]; Replication number 2): 42.5998% and 77.939%

COc1cccc(CNC(=O)c2nc3scc(CN(C)Cc4ccccc4)c3c(=O)[nH]2)c1 [T-26f]
Cell Viability (Colon cancer organoid [1]; Replication number 1): 98.5646% and 83.8292%
Cell Viability (Colon cancer organoid [1]; Replication number 2): 88.8685% and 86.2245%
Cell Viability (Colon cancer organoid [2]; Replication number 1): 195.868% and 94.1333%
Cell Viability (Colon cancer organoid [2]; Replication number 2): 147.324% and 100.767%
Cell Viability (Colon cancer organoid [3]; Replication number 1): 86.0581% and 83.8408%
Cell Viability (Colon cancer organoid [3]; Replication number 2): 86.5317% and 78.1759%

O[C@H]1CC[C@H](Nc2ncc3nc(Nc4c(F)cc(F)cc4F)n([C@H]4CCOC4)c3n2)CC1 [TANZISERTIB]
Cell Viability (Colon cancer organoid [1]; Replication number 1): 99.1681% and 86.9686%
Cell Viability (Colon cancer organoid [1]; Replication number 2): 119.868% and 95.5739%
Cell Viability (Colon cancer organoid [2]; Replication number 1): 161.464% and 97.9897%
Cell Viability (Colon cancer organoid [2]; Replication number 2): 183.086% and 108.79%
Cell Viability (Colon cancer organoid [3]; Replication number 1): 85.5595% and 88.3572%
Cell Viability (Colon cancer organoid [3]; Replication number 2): 111.493% and 110.437%

Cc1nc(-c2cn3c(n2)-c2ccc(-c4cnn(C(C)(C)C(N)=O)c4)cc2OCC3)n(C(C)C)n1 [TASELISIB]
Cell Viability (Colon cancer organoid [1]; Replication number 1): 74.483% and 67.4564%
Cell Viability (Colon cancer organoid [1]; Replication number 2): 68.3353% and 63.3321%
Cell Viability (Colon cancer organoid [2]; Replication number 1): 40.2908% and 23.1884%
Cell Viability (Colon cancer organoid [2]; Replication number 2): 43.7188% and 27.2651%
Cell Viability (Colon cancer organoid [3]; Replication number 1): 24.4584% and 46.9606%
Cell Viability (Colon cancer organoid [3]; Replication number 2): 18.3941% and 28.1748%

COc1cccc2c1c(O)c(C(=O)N(C)c1ccc(C(F)(F)F)cc1)c(=O)n2C [TASQUINIMOD]
Cell Viability (Colon cancer organoid [1]; Replication number 1): 88.1859% and 108.165%
Cell Viability (Colon cancer organoid [1]; Replication number 2): 81.4636% and 102.566%
Cell Viability (Colon cancer organoid [2]; Replication number 1): 111.782% and 95.2859%
Cell Viability (Colon cancer organoid [2]; Replication number 2): 96.4426% and 87.5198%
Cell Viability (Colon cancer organoid [3]; Replication number 1): 48.5879% and 75.1409%
Cell Viability (Colon cancer organoid [3]; Replication number 2): 109.678% and 108.736%

C[C@@H]1CCN(C(=O)CC#N)C[C@@H]1N(C)c1ncnc2[nH]ccc12.O=C(O)CC(O)(CC(=O)O)C(=O)O [TOFACITINIB CITRATE]
Cell Viability (Colon cancer organoid [1]; Replication number 1): 116.988% and 133.24%
Cell Viability (Colon cancer organoid [1]; Replication number 2): 108.318% and 111.695%
Cell Viability (Colon cancer organoid [2]; Replication number 1): 230.679% and 101.979%
Cell Viability (Colon cancer organoid [2]; Replication number 2): 85.7625% and 94.2129%
Cell Viability (Colon cancer organoid [3]; Replication number 1): 54.8894% and 73.0004%
Cell Viability (Colon cancer organoid [3]; Replication number 2): 74.5746% and 82.0566%

CCC(=O)N1CCN(c2ccc(-n3c(=O)ccc4cnc5ccc(-c6cnc7ccccc7c6)cc5c43)cc2C(F)(F)F)CC1 [TORIN1]
Cell Viability (Colon cancer organoid [1]; Replication number 1): 35.688% and 65.784%
Cell Viability (Colon cancer organoid [1]; Replication number 2): 42.752% and 81.756%
Cell Viability (Colon cancer organoid [2]; Replication number 1): 18.1039% and 19.199%
Cell Viability (Colon cancer organoid [2]; Replication number 2): 16.4682% and 14.0105%
Cell Viability (Colon cancer organoid [3]; Replication number 1): 3.399% and 11.5065%

Cc1cnc(-c2cc(Cl)ccc2F)cc1-n1c(=O)n(CC(N)=O)c2cnccc21 [TP-008]
Cell Viability (Colon cancer organoid [1]; Replication number 1): 94.8191% and 94.398%
Cell Viability (Colon cancer organoid [1]; Replication number 2): 86.5351% and 93.3039%
Cell Viability (Colon cancer organoid [2]; Replication number 1): 46.9462% and 85.5321%
Cell Viability (Colon cancer organoid [2]; Replication number 2): 76.2638% and 97.3434%
Cell Viability (Colon cancer organoid [3]; Replication number 1): 69.5011% and 111.741%
Cell Viability (Colon cancer organoid [3]; Replication number 2): 79.5252% and 108.842%

Cn1nc(C(F)(F)F)cc1-c1cnc(N2CCc3cc(S(=O)(=O)Nc4c(F)cc(Cl)cc4F)cc(N4CCCC4=O)c32)nc1 [TP-020]
Cell Viability (Colon cancer organoid [1]; Replication number 1): 100.4% and 89.0686%
Cell Viability (Colon cancer organoid [1]; Replication number 2): 74.5209% and 80.6122%
Cell Viability (Colon cancer organoid [2]; Replication number 1): 176.236% and 116.591%
Cell Viability (Colon cancer organoid [2]; Replication number 2): 145.95% and 107.484%
Cell Viability (Colon cancer organoid [3]; Replication number 1): 97.5497% and 105.152%
Cell Viability (Colon cancer organoid [3]; Replication number 2): 112.528% and 137.4%

Cc1cc(-n2nc(Cc3cc(F)cc(C(F)(F)F)c3)nc2C)ccc1C(N)=O [TP-024]
Cell Viability (Colon cancer organoid [1]; Replication number 1): 86.6903% and 89.6507%
Cell Viability (Colon cancer organoid [1]; Replication number 2): 83.205% and 88.2653%
Cell Viability (Colon cancer organoid [2]; Replication number 1): 194.223% and 140.244%
Cell Viability (Colon cancer organoid [2]; Replication number 2): 90.9356% and 75.9401%
Cell Viability (Colon cancer organoid [3]; Replication number 1): 119.634% and 111.944%
Cell Viability (Colon cancer organoid [3]; Replication number 2): 93.5275% and 86.4673%

CC1CCN(c2ccnc(NCc3cn(C)cn3)n2)CC1 [TP-040]
Cell Viability (Colon cancer organoid [1]; Replication number 1): 98.573% and 105.41%
Cell Viability (Colon cancer organoid [1]; Replication number 2): 113.293% and 110.51%
Cell Viability (Colon cancer organoid [2]; Replication number 1): 164.974% and 118.043%
Cell Viability (Colon cancer organoid [2]; Replication number 2): 162.348% and 114.826%
Cell Viability (Colon cancer organoid [3]; Replication number 1): 114.457% and 102.441%
Cell Viability (Colon cancer organoid [3]; Replication number 2): 78.7525% and 90.5361%

CN1CCN(c2ccnc(NCCc3ccccc3)n2)CC1 [TP-040n]
Cell Viability (Colon cancer organoid [1]; Replication number 1): 124.161% and 101.443%
Cell Viability (Colon cancer organoid [1]; Replication number 2): 125.774% and 83.8743%
Cell Viability (Colon cancer organoid [2]; Replication number 1): 119.963% and 93.2958%
Cell Viability (Colon cancer organoid [2]; Replication number 2): 137.241% and 93.2958%
Cell Viability (Colon cancer organoid [3]; Replication number 1): 105.696% and 108.533%
Cell Viability (Colon cancer organoid [3]; Replication number 2): 89.6424% and 87.2137%

CC(=O)Nc1cccc(-n2c(=O)n(C3CC3)c(=O)c3c(Nc4ccc(I)cc4F)n(C)c(=O)c(C)c32)c1 [TRAMETINIB]
Cell Viability (Colon cancer organoid [1]; Replication number 1): 17.3032% and 24.3122%
Cell Viability (Colon cancer organoid [1]; Replication number 2): 17.3841% and 17.3982%
Cell Viability (Colon cancer organoid [2]; Replication number 1): 7.185% and 14.6007%
Cell Viability (Colon cancer organoid [2]; Replication number 2): 7.6439% and 10.8886%
Cell Viability (Colon cancer organoid [3]; Replication number 1): 5.765% and 5.759%
Cell Viability (Colon cancer organoid [3]; Replication number 2): 5.411% and 4.125%

Cc1ccc2[nH]c(CNCCCc3ccncc3)cc(=O)c2c1 [UCSF924NC]
Cell Viability (Colon cancer organoid [1]; Replication number 1): 94.0995% and 104.765%
Cell Viability (Colon cancer organoid [1]; Replication number 2): 78.5864% and 74.4392%
Cell Viability (Colon cancer organoid [2]; Replication number 1): 130.653% and 96.5987%
Cell Viability (Colon cancer organoid [2]; Replication number 2): 94.8728% and 93.7748%
Cell Viability (Colon cancer organoid [3]; Replication number 1): 91.5293% and 106.883%
Cell Viability (Colon cancer organoid [3]; Replication number 2): 122.187% and 128.063%

Cc1ccc2nc(CNCCCOc3ccccc3)cc(O)c2c1 [UCSF924]
Cell Viability (Colon cancer organoid [1]; Replication number 1): 109.248% and 108.585%
Cell Viability (Colon cancer organoid [1]; Replication number 2): 100.134% and 96.363%
Cell Viability (Colon cancer organoid [2]; Replication number 1): 89.1468% and 105.602%
Cell Viability (Colon cancer organoid [2]; Replication number 2): 80.3683% and 95.5591%
Cell Viability (Colon cancer organoid [3]; Replication number 1): 116.607% and 123.644%
Cell Viability (Colon cancer organoid [3]; Replication number 2): 89.7333% and 84.3345%
